Experiment: in vitro
Settings: human, hek293t cells

For C=CC(=O)N(Cc1ccc(Cl)cc1Cl)CC1CCC(O)C1 (stereo not drawn) [1-B04, N-[(2,4-dichlorophenyl)methyl]-N-[(3-hydroxycyclopentyl)methyl]prop-2-enamide], which viability at 48 h, 25 µM is on record?
Its viability at 48 h, 25 µM is 26.4%.

For C=CC(=O)N(C)Cc1cc(-c2ccccc2)[nH]n1 [1-B05, N-methyl-N-[(5-phenyl-1H-pyrazol-3-yl)methyl]prop-2-enamide], which viability at 48 h, 25 µM is on record?
Its viability at 48 h, 25 µM is 92.7%.

With C=CC(=O)NC1CC2CCC(C1)S2 (stereo not drawn) [1-B06, N-{8-thiabicyclo[3.2.1]octan-3-yl}prop-2-enamide] as the compound, how does the viability at 48 h, 25 µM read?
The viability at 48 h, 25 µM was 84.7%.

With C=CC(=O)NC(Cc1ccccc1)c1ncco1 (stereo not drawn) [1-B07, N-[1-(1,3-oxazol-2-yl)-2-phenylethyl]prop-2-enamide] as the compound, how does the viability at 48 h, 25 µM read?
The viability at 48 h, 25 µM was 118%.

For C=CC(=O)NC(C)c1cc2cnccc2o1 (stereo not drawn) [1-B08, N-(1-{furo[3,2-c]pyridin-2-yl}ethyl)prop-2-enamide], which viability at 48 h, 25 µM is on record?
Its viability at 48 h, 25 µM is 80.6%.

For C=CC(=O)N1CCOC(Cn2nc(C)nc2C)C1 (stereo not drawn) [1-B09, 1-{2-[(3,5-dimethyl-1H-1,2,4-triazol-1-yl)methyl]morpholin-4-yl}prop-2-en-1-one], which viability at 48 h, 25 µM is on record?
Its viability at 48 h, 25 µM is 161%.

With C=CC(=O)N1CCC[C@H]1C(=O)Nc1cccc(C)n1 [1-B10, (2S)-N-(6-methylpyridin-2-yl)-1-(prop-2-enoyl)pyrrolidine-2-carboxamide] as the compound, how does the viability at 48 h, 25 µM read?
The viability at 48 h, 25 µM was 77.1%.

With C=CC(=O)N(Cc1c(C)cccc1C)C1CCc2nc(C)nn2C1 (stereo not drawn) [1-B11, N-[(2,6-dimethylphenyl)methyl]-N-{2-methyl-5H,6H,7H,8H-[1,2,4]triazolo[1,5-a]pyridin-6-yl}prop-2-enamide] as the compound, how does the viability at 48 h, 25 µM read?
The viability at 48 h, 25 µM was 114%.

With C=CC(=O)N(C)C1CCN(c2cnccn2)CC1 [1-B12, N-methyl-N-[1-(pyrazin-2-yl)piperidin-4-yl]prop-2-enamide] as the compound, how does the viability at 48 h, 25 µM read?
The viability at 48 h, 25 µM was 70.1%.

For C=CC(=O)NC(c1ccccc1)c1nc(C)no1 (stereo not drawn) [1-B13, N-[(3-methyl-1,2,4-oxadiazol-5-yl)(phenyl)methyl]prop-2-enamide], which viability at 48 h, 25 µM is on record?
Its viability at 48 h, 25 µM is 109%.

With C=CC(=O)Nc1c(OC)nc(Cl)nc1OC [1-B14, N-(2-chloro-4,6-dimethoxypyrimidin-5-yl)prop-2-enamide] as the compound, how does the viability at 48 h, 25 µM read?
The viability at 48 h, 25 µM was 60.2%.

Which viability at 48 h, 25 µM does the source give for C=CC(=O)N(Cc1sc(C)nc1C)[C@@H](C)[C@H]1COC(C)(C)O1 [1-B15, N-[(1S)-1-[(4S)-2,2-dimethyl-1,3-dioxolan-4-yl]ethyl]-N-[(2,4-dimethyl-1,3-thiazol-5-yl)methyl]prop-2-enamide] here?
Its viability at 48 h, 25 µM is 90%.

Which viability at 48 h, 25 µM does the source give for C=CC(=O)Nc1nc(Cc2ccccc2)c(C)s1 [1-B16, N-(4-benzyl-5-methyl-1,3-thiazol-2-yl)prop-2-enamide] here?
Its viability at 48 h, 25 µM is 73.2%.

Which viability at 48 h, 25 µM does the source give for C=CC(=O)N(Cc1ccc(=O)n(C)c1)C1CCCc2ccccc21 (stereo not drawn) [1-B17, N-[(1-methyl-6-oxo-1,6-dihydropyridin-3-yl)methyl]-N-(1,2,3,4-tetrahydronaphthalen-1-yl)prop-2-enamide] here?
Its viability at 48 h, 25 µM is 112%.

Which viability at 48 h, 25 µM does the source give for C=CC(=O)N1CCN(Cc2cc(C)no2)CC1 [1-B18, 1-{4-[(3-methyl-1,2-oxazol-5-yl)methyl]piperazin-1-yl}prop-2-en-1-one] here?
The viability at 48 h, 25 µM was 70.8%.

Which viability at 48 h, 25 µM does the source give for C=CC(=O)N1CCC(NC(C)=O)C1 (stereo not drawn) [1-B19, N-[1-(prop-2-enoyl)pyrrolidin-3-yl]acetamide] here?
The viability at 48 h, 25 µM was 114%.

With C=CC(=O)N1CCNC(=O)C1Cc1nc2ccccc2o1 (stereo not drawn) [1-B20, 3-[(1,3-benzoxazol-2-yl)methyl]-4-(prop-2-enoyl)piperazin-2-one] as the compound, how does the viability at 48 h, 25 µM read?
Its viability at 48 h, 25 µM is 82.9%.

Which viability at 48 h, 25 µM does the source give for C=CC(=O)NC1c2cccc(F)c2CCC1C (stereo not drawn) [1-B21, N-(5-fluoro-2-methyl-1,2,3,4-tetrahydronaphthalen-1-yl)prop-2-enamide] here?
Its viability at 48 h, 25 µM is 92.8%.

Which viability at 48 h, 25 µM does the source give for C=CC(=O)NC(Cc1nc(C)no1)c1ccccc1 (stereo not drawn) [1-B22, N-[2-(3-methyl-1,2,4-oxadiazol-5-yl)-1-phenylethyl]prop-2-enamide] here?
Its viability at 48 h, 25 µM is 68.5%.

For C=CC(=O)NCC1SCCS1 [1-C03, N-[(1,3-dithiolan-2-yl)methyl]prop-2-enamide], which viability at 48 h, 25 µM is on record?
The viability at 48 h, 25 µM was 87.6%.

With C=CC(=O)Nc1ccc(OC)cc1S(C)(=O)=O [1-C04, N-(2-methanesulfonyl-4-methoxyphenyl)prop-2-enamide] as the compound, how does the viability at 48 h, 25 µM read?
The viability at 48 h, 25 µM was 65.8%.

For C=CC(=O)NC(CO)c1nc(C)no1 (stereo not drawn) [1-C05, N-[2-hydroxy-1-(3-methyl-1,2,4-oxadiazol-5-yl)ethyl]prop-2-enamide], which viability at 48 h, 25 µM is on record?
Its viability at 48 h, 25 µM is 71.4%.

With C=CC(=O)N1CCC(C(=O)N2CCc3ccc([N+](=O)[O-])cc32)CC1 [1-C06, 1-[4-(6-nitro-2,3-dihydro-1H-indole-1-carbonyl)piperidin-1-yl]prop-2-en-1-one] as the compound, how does the viability at 48 h, 25 µM read?
The viability at 48 h, 25 µM was 49.9%.

With C=CC(=O)NCc1coc(-c2cccs2)n1 [1-C07, N-{[2-(thiophen-2-yl)-1,3-oxazol-4-yl]methyl}prop-2-enamide] as the compound, how does the viability at 48 h, 25 µM read?
Its viability at 48 h, 25 µM is 70.1%.

Which viability at 48 h, 25 µM does the source give for C=CC(=O)NCc1c(C)nc2ccccn12 [1-C08, N-({2-methylimidazo[1,2-a]pyridin-3-yl}methyl)prop-2-enamide] here?
The viability at 48 h, 25 µM was 82.8%.

Which viability at 48 h, 25 µM does the source give for C=CC(=O)NCc1ccnc(N2CCOCC2)c1 [1-C09, N-{[2-(morpholin-4-yl)pyridin-4-yl]methyl}prop-2-enamide] here?
Its viability at 48 h, 25 µM is 70.7%.

With C=CC(=O)NCc1ccc(F)c(F)c1 [1-C10, N-[(3,4-difluorophenyl)methyl]prop-2-enamide] as the compound, how does the viability at 48 h, 25 µM read?
The viability at 48 h, 25 µM was 49.1%.

With C=CC(=O)Nc1c2c(cc3c1CCC3)CCC2 [1-C11, N-(1,2,3,5,6,7-hexahydro-s-indacen-4-yl)prop-2-enamide] as the compound, how does the viability at 48 h, 25 µM read?
The viability at 48 h, 25 µM was 45.8%.

Which viability at 48 h, 25 µM does the source give for C=CC(=O)N1CCCCC1 [1-C12, 1-(piperidin-1-yl)prop-2-en-1-one] here?
Its viability at 48 h, 25 µM is 98.4%.

For C=CC(=O)NCc1cnc(-c2ccc(C(F)(F)F)cc2)s1 [1-C13, N-({2-[4-(trifluoromethyl)phenyl]-1,3-thiazol-5-yl}methyl)prop-2-enamide], which viability at 48 h, 25 µM is on record?
Its viability at 48 h, 25 µM is 75.8%.

With C=CC(=O)NC1CCN(c2ccc(Cl)c(Cl)c2)C1 (stereo not drawn) [1-C14, N-[1-(3,4-dichlorophenyl)pyrrolidin-3-yl]prop-2-enamide] as the compound, how does the viability at 48 h, 25 µM read?
Its viability at 48 h, 25 µM is 52.9%.

Which viability at 48 h, 25 µM does the source give for C=CC(=O)N(C)Cc1c(C)nn(C)c1Cl [1-C15, N-[(5-chloro-1,3-dimethyl-1H-pyrazol-4-yl)methyl]-N-methylprop-2-enamide] here?
The viability at 48 h, 25 µM was 86.1%.

For C=CC(=O)Nc1ccc(F)cc1C(C)(F)F [1-C16, N-[2-(1,1-difluoroethyl)-4-fluorophenyl]prop-2-enamide], which viability at 48 h, 25 µM is on record?
Its viability at 48 h, 25 µM is 137%.

For C=CC(=O)Nc1cc(NC(=O)C2CC3CCC2CC3)ccc1F (stereo not drawn) [1-C17, N-[4-fluoro-3-(prop-2-enamido)phenyl]bicyclo[2.2.2]octane-2-carboxamide], which viability at 48 h, 25 µM is on record?
Its viability at 48 h, 25 µM is 2.94%.

Which viability at 48 h, 25 µM does the source give for C=CC(=O)N1CCC(n2cc(C(N)=O)nn2)C1 (stereo not drawn) [1-C18, 1-[1-(prop-2-enoyl)pyrrolidin-3-yl]-1H-1,2,3-triazole-4-carboxamide] here?
Its viability at 48 h, 25 µM is 79.6%.

Which viability at 48 h, 25 µM does the source give for C=CC(=O)Nc1ccc2c(c1)N(CC#N)CC2 [1-C19, N-[1-(cyanomethyl)-2,3-dihydro-1H-indol-6-yl]prop-2-enamide] here?
The viability at 48 h, 25 µM was 94.7%.

With C=CC(=O)Nc1ccc(OCCC)c(C)c1 [1-C20, N-(3-methyl-4-propoxyphenyl)prop-2-enamide] as the compound, how does the viability at 48 h, 25 µM read?
Its viability at 48 h, 25 µM is 80.1%.

With C=CC(=O)Nc1ccc(C(C)Sc2ccccc2)cc1 (stereo not drawn) [1-C21, N-{4-[1-(phenylsulfanyl)ethyl]phenyl}prop-2-enamide] as the compound, how does the viability at 48 h, 25 µM read?
Its viability at 48 h, 25 µM is 69.7%.

Which viability at 48 h, 25 µM does the source give for C=CC(=O)Nc1ccc2c(c1)SCC(=O)N2 [1-C22, N-(3-oxo-3,4-dihydro-2H-1,4-benzothiazin-7-yl)prop-2-enamide] here?
The viability at 48 h, 25 µM was 109%.

Reference: paper PMC11995724, “Antibiotic target discovery by integrated phenotypic and activity-based profiling of electrophilic fragments” (Cell chemical biology, 2025)
